Data set [1] deals with T1, Amine oxidase [flavin-containing] B (Homo sapiens, UniProt P27338).
T1 sequence (P27338 whole entry): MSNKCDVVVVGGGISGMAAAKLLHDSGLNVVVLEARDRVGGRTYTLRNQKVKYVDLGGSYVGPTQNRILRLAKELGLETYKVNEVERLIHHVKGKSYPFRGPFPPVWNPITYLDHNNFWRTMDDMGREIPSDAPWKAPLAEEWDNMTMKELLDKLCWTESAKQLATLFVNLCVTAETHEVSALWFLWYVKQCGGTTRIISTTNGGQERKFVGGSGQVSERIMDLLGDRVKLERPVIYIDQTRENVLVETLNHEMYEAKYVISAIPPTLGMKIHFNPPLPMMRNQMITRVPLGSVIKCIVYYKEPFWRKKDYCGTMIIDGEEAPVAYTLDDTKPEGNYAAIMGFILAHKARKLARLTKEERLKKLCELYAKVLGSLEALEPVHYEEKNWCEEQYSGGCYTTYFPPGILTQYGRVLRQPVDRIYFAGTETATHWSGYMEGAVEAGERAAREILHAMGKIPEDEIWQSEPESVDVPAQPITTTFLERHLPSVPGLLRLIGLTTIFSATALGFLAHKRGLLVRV
Kind of data set: Inhibition of human recombinant MAOB assessed as 4-hydroxyquinoline formation by fluorimetry.

For data set [2], the target named is T2, Amine oxidase [flavin-containing] A (Homo sapiens, UniProt P21397).
T2 sequence (P21397 whole entry): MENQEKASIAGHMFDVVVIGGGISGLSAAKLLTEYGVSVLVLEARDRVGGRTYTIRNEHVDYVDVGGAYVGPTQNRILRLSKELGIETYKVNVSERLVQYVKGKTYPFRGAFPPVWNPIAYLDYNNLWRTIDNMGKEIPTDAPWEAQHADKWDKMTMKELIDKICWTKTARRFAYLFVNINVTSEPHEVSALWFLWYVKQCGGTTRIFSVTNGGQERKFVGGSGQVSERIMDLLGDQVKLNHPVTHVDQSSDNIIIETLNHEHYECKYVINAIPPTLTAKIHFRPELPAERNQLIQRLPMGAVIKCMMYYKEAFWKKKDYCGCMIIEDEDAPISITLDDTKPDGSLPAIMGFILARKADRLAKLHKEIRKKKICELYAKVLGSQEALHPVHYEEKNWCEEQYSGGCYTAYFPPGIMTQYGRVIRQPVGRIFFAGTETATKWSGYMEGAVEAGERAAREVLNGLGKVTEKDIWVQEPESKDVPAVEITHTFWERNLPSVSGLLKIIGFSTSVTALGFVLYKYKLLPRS
Kind of data set: Reversible inhibition of human recombinant MAOA at 1.31 uM assessed as 4-hydroxyquinoline formation by fluorimetry.

For a further data set, the species on record is Homo sapiens. Kind of data set: Selectivity for human recombinant MAOA over human recombinant MAOB.
Data set [3] has as its target T2, Amine oxidase [flavin-containing] A. As to the kind of experiment: Inhibition of human recombinant MAOA assessed as 4-hydroxyquinoline formation by fluorimetry.
Data set [4] has as its target T1, Amine oxidase [flavin-containing] B. As to the kind of experiment: Reversible inhibition of human recombinant MAOB at 0.23 uM assessed as 4-hydroxyquinoline formation by fluorimetry.
For data set [5], the species on record is Papio hamadryas. Kind of data set: Reversible inhibition of MAOB in baboon liver mitochondria at 0.28 uM assessed as MMDP+ production by spectrophotometry.
A short description of data set [6]: Inhibition of MAOB in baboon liver mitochondria assessed as MMDP+ production by spectrophotometry. Details: species or system Papio hamadryas.
Data set [7] has as its target T2, Amine oxidase [flavin-containing] A. As to the kind of experiment: Reversible inhibition of human recombinant MAOA assessed as 4-hydroxyquinoline formation by fluorimetry.
The species entered for data set [8] is Papio hamadryas. Kind of data set: Competitive inhibition of MAOB in baboon liver mitochondria by Lineweaver-Burke plot.
In data set [9] the target is T2, Amine oxidase [flavin-containing] A. Kind of data set: Competitive inhibition of human recombinant MAOA by Lineweaver-Burke plot.
Data set [10] deals with T1, Amine oxidase [flavin-containing] B. As to the kind of experiment: Competitive inhibition of human recombinant MAOB by Lineweaver-Burke plot.

The record followed here is ChEMBL document CHEMBL1156881, “Inhibition of monoamine oxidase by 8-benzyloxycaffeine analogues” (Bioorg Med Chem, 2010).

Active and inactive are the calls of the source. The calls are words filed in the database; no cut-off is given here.

One may read the IC50 as the concentration that inhibits the measured activity by half. As a reminder, the Ki is a measure of affinity in units of concentration, obtained from inhibition or displacement. Regarding `Cn1c(=O)c2c(nc(OCc3cccc(Cl)c3)n2C)n(C)c1=O`, the figures for the IC50 in data set [1], in [3] and in data set [6] were 666 nM, 107 nM and 120 nM, respectively. In addition, the Ki amounted to 230 nM in [1], 36 nM in data set [3] and 69 nM in data set [6]. Further, the “inhibition (INH)” value in data set [2] and in data set [4] was “Active” in each case. The Ratio Ki in the data set filed under Homo sapiens came to 0.16. Moreover, the inhibition result in the data set listed under Papio hamadryas [5] is “Active”.

For `Cn1c(=O)c2c(nc(OCc3cccc(C(F)(F)F)c3)n2C)n(C)c1=O`, the half-maximal inhibitory concentration (IC50) in data set [1] is 3720 nM; in data set [3], 152 nM; in [6], 112 nM. Further, the Ki in data set [1] was 1300 nM; in [3], 51 nM; in [6], 65 nM. Moreover, the Ratio Ki in the data set filed under Homo sapiens is 0.039. Also, the “inhibition (INH)” value in [7], in data set [9] and in data set [10] was “Active” in each case. In the data set listed under Papio hamadryas [8], the inhibition result was “Active”.

As for `Cn1c(=O)c2c(nc(OCc3cccc(F)c3)n2C)n(C)c1=O`, the results for the IC50 in [1], in data set [3] and in [6] were 1070 nM, 542 nM and 534 nM, respectively. Further, the figures for the Ki in data set [1], in [3] and in [6] were 370 nM, 180 nM and 310 nM, respectively. For the same compound, the Ratio Ki in the data set filed under Homo sapiens is 0.49.

Regarding `Cc1cccc(COc2nc3c(c(=O)n(C)c(=O)n3C)n2C)c1`, the IC50 in data set [1] amounted to 397 nM; in data set [3] it was 546 nM; in data set [6] it was 698 nM. The Ki in data set [1] is 140 nM; in [3], 180 nM; in [6] it was 400 nM. Further, the Ratio Ki in the data set listed under Homo sapiens stood at 1.29.

In the case of `Cn1c(=O)c2c(nc(OCc3ccccc3)n2C)n(C)c1=O`, the IC50 in data set [1] came out at 1240 nM; in data set [3] it was 1770 nM; in data set [6], 2490 nM. The Ki is 430 nM in [1], 590 nM in data set [3] and 1440 nM in data set [6]. In the data set filed under Homo sapiens, the Ratio Ki worked out at 1.37.

`Cn1c(=O)c2c(nc(OCc3cccc(Br)c3)n2C)n(C)c1=O`: the IC50 in [1] was 941 nM; in [3], 68 nM; in data set [6], 113 nM. Further, the values for the Ki in data set [1], in data set [3] and in [6] were 330 nM, 23 nM and 65 nM, respectively. The Ratio Ki in the data set listed under Homo sapiens stood at 0.069.

Turning to `COc1cccc(COc2nc3c(c(=O)n(C)c(=O)n3C)n2C)c1`, the IC50 in [1] stood at 3150 nM; in data set [3], 1010 nM; in data set [6], 1590 nM. Moreover, the Ki in [1] stood at 1100 nM; in [3], 340 nM; in [6], 920 nM. In the data set listed under Homo sapiens, the Ratio Ki came to 0.31.
